Measured values published in patent US20260216103A1, “USE OF LONG-ACTING ß2AR AGONIST IN PREPARATION OF DRUGS FOR TREATING CANCERS” (HONG KONG SXMETEROL PHARMACEUTICAL CO., LIMITED, priority 2023, published 2026).
Counter-ions that a name gives are not always drawn.

What was measured:
[1] = system: MDA-MB-231, SW620, CT-26, H460, H1299, LLC, H446, B16F10, A375, CAL-27, KYSE-150, RT4, SU-DHL-8, PC-3, Hep G2, G-401, SNU-1, CFPAC-1, PANC-1, SF126, U2OS, Hela; test: tumor sphere formation assays of a variety of cancer cells (Example 6, IM); type: cell-based; settings: 1 μM, 3 μM, or 10 μM, 7 d; FIG. 32
Source text: After 7 d, tumor spheres in the control group and the IM treated group were counted and photographed, respectively.

[2] = system: cancer stem cells of 17 cancers; test: tumor sphere formation assays of cancer cells, summary over 17 cancers; type: cell-based; settings: summary of Examples 1-9; agonist used alone
Source text: As a gold standard for detecting the self-renewal capability of cancer stem cells in vitro, a tumor sphere formation assay may detect individual cancer stem cell that continuously self-renew in a conditioned medium and form tumor spheres consisting of multiple cells. This in vitro experiment is often used to test the responsiveness of clinical patients to anticancer drugs, and guide in vivo medication of the clinical patients.
Cancer stem cells have self-renewal capability, which determines the initiation and progression of cancers. As a gold standard for detecting the self-renewal capability of cancer stem cells in vitro, a tumor sphere formation assay may detect individual cancer stem cells that continuously self-renew in a conditioned medium and form tumor spheres consisting of multiple cells.

[3] = system: MDA-MB-231, SW620, CT-26, H460, H446, B16F10, A375, CAL-27, KYSE-150, RT4, SU-DHL-8, PC-3, Hep G2, SKOV3, G-401, CFPAC-1, PANC-1, SF126, U2OS, Hela; test: tumor sphere formation assays of a variety of cancer cells (Example 7, OH); type: cell-based; settings: 1 μM, 3 μM, or 10 μM, 7 d; FIG. 33
Source text: According to culture conditions in Table 1-Table 17 of Example 1, breast cancer cells MDA-MB-231 (A), colorectal cancer cells SW620 (B), colorectal cancer cells CT-26 (C), lung cancer cells H460 (D), lung cancer cells H446 (E), melanoma cells B16F10 (F), melanoma cells A375 (G), head and neck cancer cells CAL-27 (H), esophageal cancer cells KYSE-150 (I), bladder cancer cells RT4 (J), hematoma cells SU-DHL-8 (K), prostate cancer cells PC-3 (L), liver cancer cells Hep G2 (M), ovarian cancer cells SKOV3 (N), kidney cancer cells G-401 (O), pancreatic cancer cells CFPAC-1 (P), pancreatic cancer cells PANC-1 (Q), brain cancer cells SF126 (R), osteosarcoma cells U2OS(S), and cervical cancer cells Hela (T) were subjected to tumor sphere formation assays, and treated with olodaterol hydrochloride (OH) at concentrations of 1 μM, 3 μM, or 10 μM, respectively. After 7 d, tumor spheres in the control group and the OH treated group were counted and photographed, respectively.
(§1) Using a One-way ANOVA analysis method and Fisher's LSD test as a post test, statistical differences in the number of tumor spheres in all the groups were analyzed (*, P<0.05; **, P<0.01; ***, P<0.001; ****, P<0.0001).

[4] = system: MDA-MB-231, SW620, CT-26, H460, H1299, LLC, H446, B16F10, A375, CAL-27, KYSE-150, RT4, SU-DHL-8, PC-3, Hep G2, G-401, 786-O, SNU-1, CFPAC-1, PANC-1, SF126 …; test: tumor sphere formation assays of a variety of cancer cells (Example 9, VT); type: cell-based; settings: 1 μM, 3 μM, or 10 μM, 7 d; FIG. 35
Source text: After 7 d, tumor spheres in the control group and the VT treated group were counted and photographed, respectively.

[5] = system: MDA-MB-231, SW620, CT-26, H460, H446, B16F10, A375, CAL-27, KYSE-150, RT4, SU-DHL-8, PC-3, Hep G2, 786-O, CFPAC-1, PANC-1, Hela; test: tumor sphere formation assays of a variety of cancer cells (Example 5, FH); type: cell-based; settings: 1 μM, 3 μM, or 10 μM, 7 d; FIG. 31
Procedure: After 7 d, tumor spheres in the control group and the FH treated group were counted and photographed, respectively.
as §1

[6] = system: chronic myeloid leukemia; settings: patients, first-line treatment for chronic myeloid leukemia; cited from earlier work
[7] = system: MDA-MB-231, SW620, CT-26, H460, H446, B16F10, A375, CAL-27, KYSE-150, RT4, SU-DHL-8, PC-3, Hep G2, SKOV3, 786-O, CFPAC-1, PANC-1, SF126, U2OS, Hela; test: tumor sphere formation assays of a variety of cancer cells (Example 3, BH); type: cell-based; settings: 1 μM, 3 μM, or 10 μM, 7 d; FIG. 29
Procedure: After 7 d, tumor spheres in the control group and the BH treated group were counted and photographed, respectively.
as §1

[8] = system: MDA-MB-231, SW620, CT-26, H460, H446, B16F10, A375, CAL-27, KYSE-150, RT4, SU-DHL-8, PC-3, Hep G2, 786-O, CFPAC-1, PANC-1, Hela; test: tumor sphere formation assays of a variety of cancer cells (Example 4, CH); type: cell-based; settings: 1 μM, 3 μM, or 10 μM, 7 d; FIG. 30
Procedure: After 7 d, tumor spheres in the control group and the CH treated group were counted and photographed, respectively.
as §1

[9] = system: MDA-MB-231, SW620, CT-26, H460, H446, B16F10, A375, CAL-27, RT4, SU-DHL-8, PC-3, Hep G2, 786-O, SNU-1, CFPAC-1, PANC-1, SF126, Hela; settings: 1 μM, 3 μM, or 10 μM, 7 d; FIG. 28
Procedure: After 7 d, tumor spheres in the control group and the AT treated group were counted and photographed, respectively.
Using a One-way ANOVA analysis method and Fisher's LSD test as a post test, statistical differences in the number of tumor spheres in all the groups were analyzed (*, P<0.05; **, P<0.01; ***, P<0.001; ****, P<0.0001; n.s., no significant difference).

[10] = system: MDA-MB-231, SW620, CT-26, H460, H1299, LLC, H446, B16F10, A375, CAL-27, KYSE-150, RT4, SU-DHL-8, PC-3, Hep G2, G-401, 786-O, SNU-1, CFPAC-1, SF126, Hela; test: tumor sphere formation assays of a variety of cancer cells (Example 8, TH); type: cell-based; settings: 1 μM, 3 μM, or 10 μM, 7 d; FIG. 34
Source text: After 7 d, tumor spheres in the control group and the TH treated group were counted and photographed, respectively.

With CCc1cc2c(cc1CC)CC(NC[C@H](O)c1ccc(O)c3[nH]c(=O)ccc13)C2 [indacaterol maleate] the “number of tumor spheres (inhibition of tumor sphere formation)” value [1] was “has therapeutic effects on a variety of types of cancer in a concentration dependent manner” and the “self-renewal capability of cancer stem cells” value (from here on “self-renewal capability”) [2] was “can significantly inhibit the self-renewal capability of cancer stem cells of 17 cancers”.
For COc1ccc(CC(C)(C)NC[C@H](O)c2cc(O)cc3c2OCC(=O)N3)cc1 [olodaterol hydrochloride], the “self-renewal capability” value [2] was “can significantly inhibit the self-renewal capability of cancer stem cells of 17 cancers” and the “number of tumor spheres (inhibition of tumor sphere formation)” value [3] was “has therapeutic effects on a variety of types of cancer in a concentration dependent manner”.
In the case of O=C(O)C(c1ccccc1)(c1ccccc1)c1ccccc1.OCc1cc([C@@H](O)CNCCCCCCOCCOCc2c(Cl)cccc2Cl)ccc1O [vilanterol trifenate], the “self-renewal capability” value [2] is reported as “can significantly inhibit the self-renewal capability of cancer stem cells of 17 cancers” and the “number of tumor spheres (inhibition of tumor sphere formation)” value [4] is reported as “has therapeutic effects on a variety of types of cancer in a concentration dependent manner”.
For COc1ccc(C[C@@H](C)NC[C@H](O)c2ccc(O)c(NC=O)c2)cc1.COc1ccc(C[C@@H](C)NC[C@H](O)c2ccc(O)c(NC=O)c2)cc1.O=C(O)/C=C/C(=O)O [formoterol hemifumarate], the “number of tumor spheres (inhibition of tumor sphere formation)” value [5] was “has therapeutic effects on a variety of types of cancer in a concentration dependent manner” and the “self-renewal capability” value [2] was “can significantly inhibit the self-renewal capability of cancer stem cells of 17 cancers”.
For Cc1ccc(NC(=O)c2ccc(CN3CCN(C)CC3)cc2)cc1Nc1nccc(-c2cccnc2)n1 [imatinib, Imatinib], the “overall 10-year survival rate” value [6] is listed as 83.3%.
In the case of CN(C)C(=O)Oc1cc(OC(=O)N(C)C)cc(C(O)CNC(C)(C)C)c1 (stereo not shown) [bambuterol hydrochloride], the “number of tumor spheres (inhibition of tumor sphere formation)” value [7] is reported as “has therapeutic effects on a variety of types of cancer in a concentration dependent manner” and the “self-renewal capability” value [2] is reported as “can significantly inhibit the self-renewal capability of cancer stem cells of 17 cancers”.
For CC(C)(C)NCC(O)c1cc(Cl)c(N)c(Cl)c1 (stereo not shown) [clenbuterol hydrochloride], the “number of tumor spheres (inhibition of tumor sphere formation)” value [8] was “has therapeutic effects on a variety of types of cancer in a concentration dependent manner” and the “self-renewal capability” value [2] was “can significantly inhibit the self-renewal capability of cancer stem cells of 17 cancers”.
With COc1ccc(C[C@@H](C)NC[C@H](O)c2ccc(O)c(NC=O)c2)cc1 [arformoterol tartrate] the “number of tumor spheres (inhibition of tumor sphere formation)” value [9] was “has therapeutic effects on a variety of types of cancer in a concentration dependent manner”.
For CC(C)(C)NCC(O)c1ccccc1Cl (stereo not shown) [tulobuterol hydrochloride], the “number of tumor spheres (inhibition of tumor sphere formation)” value [10] was “has therapeutic effects on a variety of types of cancer in a concentration dependent manner” and the “self-renewal capability” value [2] was “can significantly inhibit the self-renewal capability of cancer stem cells of 17 cancers”.
